Test system: ob/ob mice
Assay: Plasma corticosterone in ob/ob mice after 7-day osmotic minipump treatment
Format: in vivo, mouse
Settings: C57BL/6J ob/ob mice, 86.4 μg/day by osmotic minipump for 7 days
Description: A study was performed in 4-6 weeks old C57BL/6J mice homozygous (ob/ob) for the obese gene mutation to assess the effect of [deamino-Pen^1, o-Me-Tyr^2, Arg^8]-AVP (Sigma) a non-selective peptide V1b receptor antagonist on corticosterone concentration. Osmotic minipumps (Alzet Model 1007D, 0.5 μl/h for 7 days) were filled either with the peptide (to deliver 86.4 μg/day for 7 days) or vehicle and primed at least for 4 h at 37° C. before their implantation. A group of mice heterozygous (+/?) for the obese gene mutation was also implanted with osmotic minipumps filled with vehicle alone. After 7 days of treatment blood was collected into EDTA tubes and separated plasma assayed for corticosterone concentration measurement, by using a commercial rat ^125I-corticosterone (Amersham, U.K.).

[deamino-Pen^1, o-Me-Tyr^2, Arg^8]-AVP [AVP antagonist]
Plasma corticosterone concentration (n=7 per group, vehicle 228.9±63 ng/ml): 109.9 ± 19.4 ng/mL | Plasma corticosterone concentration (effect in words) (versus vehicle and lean group): reduced

Source: US6380155B1, “Use of vasopressin receptor antagonist for regulation of ACTH release” (SmithKline Beecham plc., priority 1996, dated 2002)
